From the CheMixHub ionic liquid set

Test: xn = mol fraction of the nth substance listed

CCCCCC[n+]1ccn(C)c1.O=S(=O)([N-]S(=O)(=O)C(F)(F)F)C(F)(F)F + C1CCOC1
298.15 K, 100 kPa
Settings | electrical conductivity [S/m]
x1 = 0.0649 | 0.9
x1 = 0.09702 | 1.1
x1 = 0.1393 | 1
x1 = 0.194 | 1.3
x1 = 0.2742 | 0.9

CCCCCCCC(=O)[O-].c1c[nH+]c[nH]1 + CC#N
101.3 kPa
Settings | viscosity [mPa·s]
293.15 K, x2 = 0.298 | 37.82
293.15 K, x2 = 0.499 | 17.94
293.15 K, x2 = 0.5995 | 10.6
293.15 K, x2 = 0.8996 | 1.201
303.15 K, x2 = 0 | 56.48
303.15 K, x2 = 0.1044 | 45.4
303.15 K, x2 = 0.5995 | 9.6
308.15 K, x2 = 0.499 | 12.8
318.15 K, x2 = 0.298 | 18.21
318.15 K, x2 = 0.4005 | 14.1
323.15 K, x2 = 0.499 | 10.2
323.15 K, x2 = 0.5995 | 7.6

CCCCCC[n+]1ccn(C)c1.O=S(=O)([N-]S(=O)(=O)C(F)(F)F)C(F)(F)F + CC#N
298.15 K, 100 kPa
Settings | electrical conductivity [S/m]
x1 = 0.03801 | 3.3
x1 = 0.0581 | 3.7
x1 = 0.08404 | 4
x1 = 0.1205 | 3.6
x1 = 0.1763 | 2.8

CCCCCC[n+]1ccn(C)c1.[Br-] + CC#N
viscosity [mPa·s], 101 kPa
Settings | 288.15 K | 298.15 K | 308.15 K | 318.15 K
x1 = 0.004174 | 0.403 | 0.364 | 0.333 | 0.306
x1 = 0.008131 | 0.424 | 0.383 | 0.35 | 0.322
x1 = 0.01172 | 0.424 | 0.389 | 0.371 | 0.342

CCCCCC[n+]1ccn(C)c1.[Br-] + CC(=O)Oc1ccccc1C(=O)O + CC#N
viscosity [mPa·s], 101 kPa
Settings | 288.15 K | 298.15 K | 308.15 K | 318.15 K
x2 = 0, x1 = 0.004174 | 0.403 | 0.364 | 0.333 | 0.306
x2 = 0, x1 = 0.008131 | 0.424 | 0.383 | 0.35 | 0.322
x2 = 0, x1 = 0.01172 | 0.424 | 0.389 | 0.371 | 0.342

OC[C@H]1O[C@@H](O[C@H]2[C@H](O)[C@@H](O)C(O)O[C@@H]2CO)[C@H](O)[C@@H](O)[C@@H]1O (stereo not given in full) + CC(=O)[O-].CC[n+]1ccn(C)c1
100 kPa
Settings | viscosity [mPa·s]
292.4 K, x1 = 0.0255 | 339
302.1 K, x1 = 0.08067 | 921
312.5 K, x1 = 0.004998 | 61
312.5 K, x1 = 0.01515 | 73
322.6 K, x1 = 0.01515 | 45
322.6 K, x1 = 0.08067 | 207
332.2 K, x1 = 0.0255 | 39
332.2 K, x1 = 0.08067 | 123
342.5 K, x1 = 0.004998 | 20

Cn1ccnc1 + CC(=O)[O-].CC[n+]1ccn(C)c1 + CCOC(C)=O
298.15 K, 101 kPa
Settings | electrical conductivity [S/m] | viscosity [mPa·s]
x2 = 0, x1 = 0.5 | – | 0.93
x2 = 0.09996, x1 = 0.45 | 0.259 | 1.32
x2 = 0.2001, x1 = 0.4 | 0.444 | 2.05
x2 = 0.3, x1 = 0.35 | 0.61 | 3.17
x2 = 0.3995, x1 = 0.3003 | 0.724 | 5.06
x2 = 0.5003, x1 = 0.2498 | 0.795 | 7.59
x2 = 0.598, x1 = 0.201 | 0.776 | 12.8
x2 = 0.7028, x1 = 0.1486 | 0.697 | 21.4
x2 = 0.8002, x1 = 0.09992 | 0.578 | 37.1
x2 = 0.8978, x1 = 0.0511 | 0.452 | 67.4

CC(=O)[O-].C[NH+]1CCOCC1 + CC(=O)[O-].Cn1cc[nH+]c1
Settings | electrical conductivity [S/m]
298.15 K, 100 kPa, x2 = 0.71 | 0.274

CCCCCC[n+]1ccn(C)c1.O=S(=O)([N-]S(=O)(=O)C(F)(F)F)C(F)(F)F + CC(C)=O
298.15 K, 100 kPa
Settings | electrical conductivity [S/m]
x1 = 0.0527 | 2.6
x1 = 0.07996 | 3.1
x1 = 0.1149 | 3.1
x1 = 0.163 | 2.4
x1 = 0.2325 | 2

CCCCCC[n+]1ccn(C)c1.O=S(=O)([N-]S(=O)(=O)C(F)(F)F)C(F)(F)F + CC(C)O
viscosity [mPa·s], 100 kPa
Settings | x2 = 0 | x2 = 0.0845 | x2 = 0.2111 | x2 = 0.3269 | x2 = 0.4529 | x2 = 0.5435 | x2 = 0.637 | x2 = 0.7321 | x2 = 0.8285 | x2 = 0.9173
293.15 K | 85.2 | 73.5 | 57 | 42.3 | 29.9 | 22.4 | 16.2 | 12 | 8.01 | 4.5
298.15 K | 65.9 | 56.6 | 44.5 | 34.1 | 24.2 | 18.8 | 13.6 | 9.86 | 6.52 | 3.73
303.15 K | 51.9 | 45 | 36.5 | 28.6 | 20.2 | 15.6 | 11.4 | 8.26 | 5.51 | 3.24
308.15 K | 41.4 | 36 | 30.5 | 24.1 | 17.2 | 13.2 | 9.62 | 7.11 | 4.67 | 2.82
313.15 K | 33.8 | 30.5 | 25.6 | 20.6 | 14.9 | 11.3 | 8.31 | 6.06 | 3.98 | 2.41

CC[n+]1ccn(CCOC)c1.O=S(=O)([O-])C(F)(F)F + CC(C)O
viscosity [mPa·s], 101 kPa
Settings | x1 = 0.0997 | x1 = 0.2004 | x1 = 0.3004 | x1 = 0.4003 | x1 = 0.5004 | x1 = 0.601 | x1 = 0.7 | x1 = 0.8 | x1 = 0.9 | x1 = 1
288.15 K | 4.72 | 7.33 | 10.86 | 16.19 | 21.8 | 33.6 | 47.3 | 64.2 | 85.2 | 121
293.15 K | 4.047 | 6.23 | 9.17 | 13.53 | 18.15 | 27.6 | 38 | 51.3 | 65.2 | 92.5
298.15 K | 3.489 | 5.36 | 7.83 | 11.45 | 15.16 | 22.88 | 31.09 | 41.4 | 52.2 | 72.5
303.15 K | 3.03 | 4.64 | 6.75 | 9.8 | 12.85 | 19.27 | 25.81 | 33.89 | 42.7 | 57.9
308.15 K | 2.654 | 4.06 | 5.87 | 8.47 | 11.07 | 16.64 | 21.71 | 28.27 | 35.58 | 47.3
313.15 K | 2.336 | 3.599 | 5.15 | 7.38 | 9.64 | 14.32 | 18.62 | 23.79 | 30.09 | 39
318.15 K | 2.068 | 3.192 | 4.55 | 6.49 | 8.54 | 12.42 | 16.2 | 20.22 | 25.83 | 32.59
